Measurements: patent US20260315436A1, “METHOD OF TREATING DISORDERS WITH SURF1 MALFUNCTION” (Cure Mito Foundation, priority 2023, published 2026)
“Also recorded” adds a separate entry of the source.

Columns and labels:
Format in all cases: cell-based, human
[1] = system: GM28012 SURF1 fibroblasts; test: Seahorse mitochondrial stress test, fibroblast cell line GM28012 (Experiment 3, single compounds); settings: 48 h; for increase in respiration compared with GM28010: GM28012 vs GM28010; for maximal respiration (maximal OCR): glucose and galactose conditions
Procedure: (§1) In order to evaluate selected compounds' impact on mitochondrial function in patient-derived fibroblasts compared to controls, three seahorse assays were conducted, Exp. 1: Fibroblast cell line GM28010—single compounds; Exp. 2. Fibroblast cell line GM28010—combination of compounds+ Single compounds; and Exp. 3: Fibroblast cell line GM28012—single compounds. Seahorse XF24 Extracellular Flux Analyzers continuously measure oxygen concentration and proton flux in the cell supernatant over time (Wu et al., 2007). The oxygen concentration and proton flux measurements are converted in OCR and ECAR values. This enables a direct quantification of mitochondrial respiration and glycolysis. The aim of the seahorse assays is to evaluate the impact of selected compounds on mitochondrial function in patient-derived fibroblasts compared to controls. Compounds used in the seahorse assays include posacanazole, sertaconazole, glabridin, zinglibroside (ginsenoside Z R1), AM281, cysteamine bitrartate, PF-06447475, losmapimod, telepravir, miltefosine, incyclinide, poziotinib, and methylene blue.
(§2) • Basal Oxygen Consumption (OCR): This reflects the cellular oxygen usage under basal conditions, encompassing both energy production (ATP turnover) and background oxygen leak from the mitochondria. • Oligomycin Injection: Oligomycin is a compound that inhibits ATP synthase, an enzyme crucial for ATP production within mitochondria. • Oligomycin-resistant Respiration: After oligomycin injection, minimal oxygen consumption persists, representing non-ATP linked oxygen leak from the mitochondria, often termed proton leak. • ATP-linked Respiration: This value is derived by subtracting the oligomycin-resistant respiration from the basal OCR. It signifies the oxygen consumption specifically linked to ATP production through mitochondrial oxidative phosphorylation. • Mitochondrial Bioenergetic Efficiency: This parameter reflects the percentage decrease in oxygen consumption observed after oligomycin injection, indicating the mitochondria's efficiency in utilizing oxygen for ATP generation. • FCCP Injection: FCCP is a chemical that disrupts the link between mitochondrial electron transport and ATP production. • Maximal Respiration: Following FCCP injection, the highest oxygen consumption rate is measured, representing the maximum capacity of the mitochondria to utilize oxygen for respiration. • Spare Respiratory Capacity: This parameter is calculated by subtracting basal respiration from maximal respiration.
GM28010 primary human fibroblasts obtained from patients with SURF1 Leigh syndrome were purchased from the Coriell Cell Repositories (Camden, N.J.; repository number GM28010).
GM00038 primary human fibroblasts purchased from the Coriell Cell Repositories (Camden, N.J., repository number GM00038) and were used as a healthy control.
Fibroblasts were grown in glucose according to recommendation. Cells were plated in XF96 plates in culture medium and plated at 10,000 cells/well. The day after plating, the cells were treated with the compounds. The treatments completed in glucose medium and galactose medium. The compounds were tested at for 48 hours. The compounds were incubated at (37 C, 5% CO2) until the day of the experiment. The fibroblasts were run at passage numbers: GM28012 SURF1 Fibroblasts P5.
(§3) The assay medium was 10 mM glucose or galactose DMEM supplemented with 2 mM glutamine and 1 mM pyruvate. Injection Ports for basal glucose: Port A: 2 μM oligomycin; Port B: 2.5 μM FCCP; Port C: 4 μM FCCP; and Port D: 2 μM rotenone and antimycin A.
The data were normalized to cell number per well after the run. The Hoechst-stained nuclei were counted with a Operetta High-Content Imager.

[2] = system: GM28010 SURF1 mutant fibroblasts; test: Seahorse mitochondrial stress test, fibroblast cell line GM28010 (Experiment 1, single compounds); settings: 48 h; for increase in ATP-linked respiration / increase in maximal respiration: both glucose and galactose-cultured cells; for ATP-linked respiration / basal respiration: galactose-cultured cells
Procedure: as §1
Fibroblast cell line GM28010 is a primary human fibroblast cell line obtained from patients with SURF1 Leigh syndrome. It was purchased from the Coriell Cell Repositories (Camden, NJ, repository number GM28010). Cell line GM00038 was used as a healthy control for GM28010 and is a primary human fibroblast purchased from the Coriell Cell Repositories (Camden, NJ, repository number GM00038).
Fibroblasts were grown in glucose according to recommendation.
Cells were plated in XF96 plates in culture medium and were plated at 10,000 cells/well.
The day after plating, cells were treated with the compounds in Table 1. The treatments were completed in glucose medium and galactose medium. The compounds were tested at for 48 hours. The compounds were incubated at (37 C, 5% CO2) until the day of the experiment.
*Fibroblasts were run at passage numbers: GM28010 SURF1 Fibroblasts P5; GM00038F controls P9.
• Assay Medium: 10 mM glucose or galactose DMEM supplemented with 2 mM glutamine and 1 mM pyruvate. • Injection Ports for basal glucose: Port A: 2 μM oligomycin; Port B: 2.5 μM FCCP; Port C: 4 μM FCCP; and Port D: 2 μM rotenone and antimycin A.
Data were normalized to cell number per well after the run. The Hoechst-stained nuclei were counted with the Operetta High-Content Imager.
as §2

[3] = system: GM28010 SURF1 mutant fibroblasts; test: Seahorse mitochondrial stress test, fibroblast cell line GM28010 (Experiment 2, combinations and single compounds); settings: 48 h
Procedure: as §1, §2
GM28010 is a primary human fibroblast cell line that was obtained from patients with SURF1 Leigh syndrome. It was purchased from the Coriell Cell Repositories (Camden, N.J., repository number GM28010).
GM00038 is a primary human fibroblast cell line purchased from the Coriell Cell Repositories (Camden, N.J.; repository number GM00038). GM00038 was used as a healthy control.
Fibroblasts were grown in glucose according to recommendation. Cells were plated in XF96 plates in culture medium and plated at 10,000 cells/well. The day after plating, cells were treated with compounds. Treatments completed in glucose medium Compounds were tested at for 48 hours. The compounds were incubated at (37 C, 5% CO2) until the day of the experiment.
The fibroblasts were run at passage numbers: GM28010 SURF1 Fibroblasts P5.
as §3, with “Assay Medium” for “assay medium”, “A. The Data were normalized to cell number per well after the run. The Hoechst-stained nuclei were counted with a Operetta High-Content Imager.” for “A.”

[4] = glucose and galactose conditions
[5] = both glucose and galactose, listed as Cysteamine Bitrartate
[6] = combinations at 1 μM losmapimod, 10 μM Ginsenoside Z R1, 10 μM PF-06447475, single compounds 1, 5, 10 μM
[7] = glucose-cultured cells, listed as incyclinide
[8] = glucose-cultured cells, listed as Telepravir

Cc1c(F)cc(C(=O)NC2CC2)cc1-c1ccc(C(=O)NCC(C)(C)C)cn1 [Losmapimod, losmapimod]
ATP production through OXPHOS [1]: Increased ATP-linked respiration and ATP production through OXPHOS | ATP production through glycolysis [1]: glucose-cultured cells. ↓ATP | total ATP production rate [1]: without changes; also recorded: maintained | increase in respiration compared with GM28010 [1]: did not increase respiration as much | increase in respiration compared with GM28010 ([1]; listed as losmapimod): not as impressive as was observed in GM28010 | ATP-linked respiration ([1]; glucose-cultured cells, listed as losmapimod): increased in ATP-linked respiration | ATP production through glycolysis ([1]; listed as losmapimod): decrease in ATP production through glycolysis | total ATP production rate ([1]; listed as losmapimod): maintained | ATP-linked respiration ([1]; medium not stated): Increased ATP-linked respiration | ATP production through glycolysis [2]: conditions. ↓ ATP production | increase in ATP-linked respiration [2]: 12-15% increases in | increase in maximal respiration [2]: 12-15% increases in | increase in ATP-linked respiration ([2]; listed as losmapimod): 12-15% | increase in maximal respiration ([2]; listed as losmapimod): 12-15% | respiration [2, 4]: Increased respiration | increase in respiration ([2]; glucose and galactose culture conditions): up to 15% | ATP production through glycolysis ([2]; listed as losmapimod): decrease in ATP production through glycolysis

CC1(C)C=Cc2c(ccc3c2OC[C@@H](c2ccc(O)cc2O)C3)O1 [Glabridin, glabridin]
maximal respiration (maximal OCR) [1]: ↓ maximal OCR in both | maximal respiration (maximal OCR) ([1]; listed as glabridin): decreased maximal respiration | respiration [2, 4]: did not result in major changes | respiration ([2]; glucose and galactose conditions, listed as glabridin): did not result in major changes

NCCS [cysteamine bitartrate]
ATP production through OXPHOS [1]: Dose-dependent increase | ATP production through glycolysis [1]: decrease ATP production through glycolysis | total ATP production rate [1]: Dose-dependent increase | ATP-linked respiration ([1]; both glucose and galactose): increased basal respiration and ATP-Linked respiration in a dose-dependent manner | basal respiration ([1]; both glucose and galactose): increased basal respiration and ATP-Linked respiration in a dose-dependent manner | ATP-linked respiration [1, 5]: ↑basal respiration and ATP- | basal respiration [1, 5]: ↑basal respiration and ATP- | glycolysis ([1]; glucose-cultured cells): dose-dependent decrease | maximal respiration ([1]; glucose-cultured cells): dose-dependent decrease | toxicity ([1]; glucose-cultured cells): some toxicity | ATP production through glycolysis ([1]; listed as Cysteamine Bitrartate): conditions. ↓ATP production | respiration (oxygen consumption rate) [3, 6]: did not alter oxygen consumption rates | ATP production rate through glycolysis ([3]; higher concentrations): decreased

CN(C)c1ccc2nc3ccc(=[N+](C)C)cc-3sc2c1 [Methylene Blue, methylene blue]
ATP production rate through OXPHOS [3, 6]: dose-dependent decrease in ATP production through OXPHOS | respiration (oxygen consumption rate) [3, 6]: decreased oxygen consumption rates | total ATP production rates [3, 6]: maintain ATP production rates | ATP production through glycolysis ([3]; combinations at 1 μM losmapimod, 10 μM Ginsenoside Z R1, single compounds 1, 5, 10 μM): increase in ATP production through glycolysis

NC(=O)C1=C(O)C[C@@H]2C[C@@H]3Cc4cccc(O)c4C(=O)C3=C(O)[C@]2(O)C1=O [Incyclinide, incyclinide]
all respiratory parameters measured ([1]; glucose-cultured cells): dose-dependent decrease | toxicity ([1]; glucose-cultured cells): Toxicity observed in glucose | toxicity [1, 7]: showed toxicity | ATP-linked respiration [2]: ↑ basal respiration and ATP- | basal respiration [2]: ↑ basal respiration and ATP- | ATP-linked respiration ([2]; listed as incyclinide): some increase | basal respiration ([2]; listed as incyclinide): some increase | all respiratory parameters measured ([2]; glucose-cultured cells): dose-dependent decrease | toxicity ([2]; glucose-cultured cells): Toxicity in glucose | toxicity [2, 7]: some toxicity

CCC[C@H](NC(=O)[C@@H]1[C@H]2CCC[C@H]2CN1C(=O)[C@@H](NC(=O)[C@@H](NC(=O)c1cnccn1)C1CCCCC1)C(C)(C)C)C(=O)C(=O)NC1CC1 [Telaprevir, telaprevir]
ATP production through OXPHOS [1]: Dose-dependent increase | total ATP production rate [1]: without changes | respiration ([1]; galactose conditions): did not result in major changes | ATP production through OXPHOS ([1]; glucose): dose-dependent increase | ATP-linked respiration ([1]; glucose-cultured cells): dose-dependent increase | maximal respiration ([1]; glucose-cultured cells): without any changes | ATP-linked respiration [1, 8]: dependent ↑ATP-Linked | maximal respiration [1, 8]: through OXPHOS, no change | ATP production through OXPHOS ([1]; glucose, listed as Telepravir): dependent ↑ATP-Linked | respiration [2, 4]: did not result in major changes

N#Cc1cccc(-c2c[nH]c3ncnc(N4CCOCC4)c23)c1 [PF-06447475]
ATP production through glycolysis [1]: increase in ATP production glycolysis; also recorded: both conditions. ↑ ATP | total ATP production rate ([1]; 1 μM): increased the total ATP Production rate | maximal respiration (maximal OCR) [1]: did not result increase maximal respiration | ATP production through OXPHOS [2]: increase in ATP production; also recorded: both conditions. ↑ ATP | ATP production through glycolysis [2]: increase in ATP production; also recorded: both conditions. ↑ ATP | maximal respiration [2, 4]: did not result increase maximal respiration; also recorded: did not result in an increase
